Experiments:
Test in all cases: KAM-matrix competition in K562 lysate;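 on 0.001 uM KAM: median log10 fold change of treatment over DMSO control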;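 on 0.01 uM KAM: median log10 fold change of treatment over DMSO control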;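 on 0.1 uM KAM: median log10 fold change of treatment over DMSO control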;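 on 1 uM KAM: median log10 fold change of treatment over DMSO control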;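 on 10 uM KAM: median log10 fold change of treatment over DMSO control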
Assay type in all cases: binding
RPS6KA3 = target: T1, RPS6KA3 (Homo sapiens, UniProt P51812);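 on 0.001 uM KAM: median log10 fold change of treatment over DMSO control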;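 on 0.01 uM KAM: median log10 fold change of treatment over DMSO control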;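 on 0.1 uM KAM: median log10 fold change of treatment over DMSO control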;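 on 1 uM KAM: median log10 fold change of treatment over DMSO control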;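 on 10 uM KAM: median log10 fold change of treatment over DMSO control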
T1 construct: endogenous in cells; host or cells: K562
Experimental: (§1) Supplement 12953_2017_125_MOESM1_ESM.zip/MS_Supp Info.xlsx, sheet "KAM" | column: 10 uM KAM; 1 uM KAM; 0.1 uM KAM; 0.01 uM KAM; 0.001 uM KAM; RB50

JAK1 = target: T2, JAK1 (Homo sapiens, UniProt P23458)
T2 construct: endogenous in cells; host or cells: K562
Experimental: as §1

PRKCB = target: T3, PRKCB (Homo sapiens, UniProt P05771)
T3 construct: endogenous in cells; host or cells: K562
Experimental: as §1

CAMKK1 = target: T4, CAMKK1 (Homo sapiens, UniProt Q8N5S9)
T4 construct: endogenous in cells; host or cells: K562
Experimental: as §1

BCR = target: T5, BCR (Homo sapiens, UniProt P00519+P11274)
T5 construct: ABL1 (fusion partner in BCR-ABL); endogenous in cells; host or cells: K562 lysate
Experimental: as §1

HUNK = target: T6, HUNK (Homo sapiens, UniProt P57058);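 on 0.001 uM KAM: median log10 fold change of treatment over DMSO control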;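 on 0.01 uM KAM: median log10 fold change of treatment over DMSO control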;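 on 0.1 uM KAM: median log10 fold change of treatment over DMSO control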;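 on 1 uM KAM: median log10 fold change of treatment over DMSO control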;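 on 10 uM KAM: median log10 fold change of treatment over DMSO control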
T6 construct: endogenous in cells; host or cells: K562
T6 sequence (P57058 1-714): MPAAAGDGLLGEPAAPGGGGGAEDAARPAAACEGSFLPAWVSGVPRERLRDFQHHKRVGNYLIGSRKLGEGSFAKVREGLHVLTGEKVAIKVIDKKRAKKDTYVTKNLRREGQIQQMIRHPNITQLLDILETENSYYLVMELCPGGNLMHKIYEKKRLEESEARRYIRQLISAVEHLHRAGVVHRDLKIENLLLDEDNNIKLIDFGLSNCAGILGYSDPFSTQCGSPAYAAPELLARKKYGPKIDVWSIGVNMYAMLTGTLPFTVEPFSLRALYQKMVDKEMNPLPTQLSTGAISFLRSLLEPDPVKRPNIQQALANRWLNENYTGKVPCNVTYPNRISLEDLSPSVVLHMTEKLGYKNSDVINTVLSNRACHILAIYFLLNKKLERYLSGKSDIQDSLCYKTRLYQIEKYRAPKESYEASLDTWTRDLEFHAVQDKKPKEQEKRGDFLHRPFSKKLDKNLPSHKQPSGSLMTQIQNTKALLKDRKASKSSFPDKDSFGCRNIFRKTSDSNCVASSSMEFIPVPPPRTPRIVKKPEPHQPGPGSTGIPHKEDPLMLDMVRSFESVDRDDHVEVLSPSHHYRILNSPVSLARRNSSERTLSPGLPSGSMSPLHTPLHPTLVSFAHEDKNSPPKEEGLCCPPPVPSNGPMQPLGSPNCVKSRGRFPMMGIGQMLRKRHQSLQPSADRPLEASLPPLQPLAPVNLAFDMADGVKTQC
Experimental: as §1

CSNK1A1 = target: T7, CSNK1A1 (Homo sapiens, UniProt P48729);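 on 0.001 uM KAM: median log10 fold change of treatment over DMSO control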;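 on 0.01 uM KAM: median log10 fold change of treatment over DMSO control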;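 on 0.1 uM KAM: median log10 fold change of treatment over DMSO control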;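 on 1 uM KAM: median log10 fold change of treatment over DMSO control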;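 on 10 uM KAM: median log10 fold change of treatment over DMSO control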
T7 construct: endogenous in cells; host or cells: K562
Experimental: as §1

RPS6KA4 = target: T8, RPS6KA4 (Homo sapiens, UniProt O75676)
T8 construct: endogenous in cells; host or cells: K562
Experimental: as §1

PKN1 = target: T9, PKN1 (Homo sapiens, UniProt Q16512);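 on 0.001 uM KAM: median log10 fold change of treatment over DMSO control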;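 on 0.01 uM KAM: median log10 fold change of treatment over DMSO control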;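 on 0.1 uM KAM: median log10 fold change of treatment over DMSO control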;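 on 1 uM KAM: median log10 fold change of treatment over DMSO control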;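 on 10 uM KAM: median log10 fold change of treatment over DMSO control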
T9 construct: endogenous in cells; host or cells: K562
Experimental: as §1

TRIM28 = target: T10, TRIM28 (Homo sapiens, UniProt Q13263);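 on 0.001 uM KAM: median log10 fold change of treatment over DMSO control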;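 on 0.01 uM KAM: median log10 fold change of treatment over DMSO control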;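 on 0.1 uM KAM: median log10 fold change of treatment over DMSO control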;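 on 1 uM KAM: median log10 fold change of treatment over DMSO control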;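 on 10 uM KAM: median log10 fold change of treatment over DMSO control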
T10 construct: endogenous in cells; host or cells: K562
Experimental: as §1

HIPK3 = target: T11, HIPK3 (Homo sapiens, UniProt Q9H422);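 on 0.001 uM KAM: median log10 fold change of treatment over DMSO control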;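 on 0.01 uM KAM: median log10 fold change of treatment over DMSO control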;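 on 0.1 uM KAM: median log10 fold change of treatment over DMSO control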;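 on 1 uM KAM: median log10 fold change of treatment over DMSO control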;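 on 10 uM KAM: median log10 fold change of treatment over DMSO control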
T11 construct: endogenous in cells; host or cells: K562 cells (combined S0.8 and P0.8 lysate)
Experimental: as §1

[1] = KAM 0.001-10 uM, read-out: RB50 (the source's name)
[2] = read-out: RB50 (the source's name)

T3 sequence (P05771 whole entry): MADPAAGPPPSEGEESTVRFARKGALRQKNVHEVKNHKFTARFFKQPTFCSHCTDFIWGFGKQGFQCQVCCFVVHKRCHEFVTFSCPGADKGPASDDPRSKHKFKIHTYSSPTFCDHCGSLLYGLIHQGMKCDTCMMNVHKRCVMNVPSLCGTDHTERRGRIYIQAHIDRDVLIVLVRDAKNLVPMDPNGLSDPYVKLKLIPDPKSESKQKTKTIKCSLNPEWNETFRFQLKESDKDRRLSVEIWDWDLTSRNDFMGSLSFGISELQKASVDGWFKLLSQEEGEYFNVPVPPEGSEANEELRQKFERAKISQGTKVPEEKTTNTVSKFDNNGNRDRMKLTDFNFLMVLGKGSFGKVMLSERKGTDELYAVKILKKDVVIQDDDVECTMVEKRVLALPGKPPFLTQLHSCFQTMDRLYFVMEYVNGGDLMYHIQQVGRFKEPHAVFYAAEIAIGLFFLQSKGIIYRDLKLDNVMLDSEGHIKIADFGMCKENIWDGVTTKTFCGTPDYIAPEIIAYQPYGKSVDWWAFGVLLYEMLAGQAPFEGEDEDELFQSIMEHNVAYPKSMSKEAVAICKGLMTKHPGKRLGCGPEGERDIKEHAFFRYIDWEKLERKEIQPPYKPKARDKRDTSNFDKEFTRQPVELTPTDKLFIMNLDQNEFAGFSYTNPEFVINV
T11 sequence (Q9H422 whole entry): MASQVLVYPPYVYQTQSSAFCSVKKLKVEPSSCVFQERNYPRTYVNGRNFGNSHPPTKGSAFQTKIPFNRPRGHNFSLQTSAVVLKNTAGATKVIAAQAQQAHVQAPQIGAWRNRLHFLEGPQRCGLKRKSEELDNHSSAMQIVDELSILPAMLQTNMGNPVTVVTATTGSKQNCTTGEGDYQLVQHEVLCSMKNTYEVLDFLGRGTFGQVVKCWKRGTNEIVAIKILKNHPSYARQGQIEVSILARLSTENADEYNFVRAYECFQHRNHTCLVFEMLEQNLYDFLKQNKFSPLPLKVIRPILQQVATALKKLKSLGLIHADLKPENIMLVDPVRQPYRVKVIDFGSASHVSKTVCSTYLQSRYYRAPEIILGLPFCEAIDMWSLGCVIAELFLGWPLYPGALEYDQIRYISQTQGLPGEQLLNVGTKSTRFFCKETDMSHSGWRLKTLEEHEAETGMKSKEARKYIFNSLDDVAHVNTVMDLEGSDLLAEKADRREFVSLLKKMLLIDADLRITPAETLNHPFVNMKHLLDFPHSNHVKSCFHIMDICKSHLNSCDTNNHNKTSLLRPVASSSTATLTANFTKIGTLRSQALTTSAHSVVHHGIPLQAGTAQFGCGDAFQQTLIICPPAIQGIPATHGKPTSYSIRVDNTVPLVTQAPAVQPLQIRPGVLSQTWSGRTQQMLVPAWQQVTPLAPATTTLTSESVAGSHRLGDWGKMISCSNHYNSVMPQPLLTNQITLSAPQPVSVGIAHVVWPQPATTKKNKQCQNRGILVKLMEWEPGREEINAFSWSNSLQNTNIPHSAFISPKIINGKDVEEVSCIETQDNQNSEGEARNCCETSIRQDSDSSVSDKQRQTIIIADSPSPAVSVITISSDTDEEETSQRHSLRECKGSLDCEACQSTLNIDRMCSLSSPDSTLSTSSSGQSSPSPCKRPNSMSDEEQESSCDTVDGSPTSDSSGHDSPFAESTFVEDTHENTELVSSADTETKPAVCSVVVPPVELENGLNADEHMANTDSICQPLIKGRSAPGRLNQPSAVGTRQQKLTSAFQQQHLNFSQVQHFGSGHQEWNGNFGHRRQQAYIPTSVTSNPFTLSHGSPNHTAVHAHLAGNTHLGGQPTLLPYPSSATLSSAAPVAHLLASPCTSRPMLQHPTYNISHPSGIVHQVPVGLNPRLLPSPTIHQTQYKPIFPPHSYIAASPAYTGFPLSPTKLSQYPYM
T10 sequence (Q13263 whole entry): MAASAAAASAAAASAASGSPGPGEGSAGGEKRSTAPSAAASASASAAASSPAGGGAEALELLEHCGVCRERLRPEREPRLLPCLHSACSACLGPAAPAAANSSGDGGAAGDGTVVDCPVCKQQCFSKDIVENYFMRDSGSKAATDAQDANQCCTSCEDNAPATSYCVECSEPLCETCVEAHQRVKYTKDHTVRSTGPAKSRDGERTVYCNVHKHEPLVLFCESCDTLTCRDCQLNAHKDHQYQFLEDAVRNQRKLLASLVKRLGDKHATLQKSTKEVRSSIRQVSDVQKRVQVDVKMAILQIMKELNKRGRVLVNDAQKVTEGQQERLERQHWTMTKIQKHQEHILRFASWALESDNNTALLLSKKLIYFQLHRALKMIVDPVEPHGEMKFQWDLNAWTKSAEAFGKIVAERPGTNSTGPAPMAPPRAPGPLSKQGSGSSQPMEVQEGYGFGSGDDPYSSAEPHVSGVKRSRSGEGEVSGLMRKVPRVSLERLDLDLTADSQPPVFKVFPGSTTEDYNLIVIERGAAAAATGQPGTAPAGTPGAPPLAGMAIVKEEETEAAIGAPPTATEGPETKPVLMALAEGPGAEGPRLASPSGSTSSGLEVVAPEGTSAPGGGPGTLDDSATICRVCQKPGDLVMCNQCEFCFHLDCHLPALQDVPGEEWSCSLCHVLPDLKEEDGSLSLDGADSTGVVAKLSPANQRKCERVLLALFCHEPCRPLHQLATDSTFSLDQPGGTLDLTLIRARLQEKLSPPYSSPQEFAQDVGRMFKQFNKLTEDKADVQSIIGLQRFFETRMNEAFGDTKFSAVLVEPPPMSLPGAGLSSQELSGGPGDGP
T1 sequence (P51812 whole entry): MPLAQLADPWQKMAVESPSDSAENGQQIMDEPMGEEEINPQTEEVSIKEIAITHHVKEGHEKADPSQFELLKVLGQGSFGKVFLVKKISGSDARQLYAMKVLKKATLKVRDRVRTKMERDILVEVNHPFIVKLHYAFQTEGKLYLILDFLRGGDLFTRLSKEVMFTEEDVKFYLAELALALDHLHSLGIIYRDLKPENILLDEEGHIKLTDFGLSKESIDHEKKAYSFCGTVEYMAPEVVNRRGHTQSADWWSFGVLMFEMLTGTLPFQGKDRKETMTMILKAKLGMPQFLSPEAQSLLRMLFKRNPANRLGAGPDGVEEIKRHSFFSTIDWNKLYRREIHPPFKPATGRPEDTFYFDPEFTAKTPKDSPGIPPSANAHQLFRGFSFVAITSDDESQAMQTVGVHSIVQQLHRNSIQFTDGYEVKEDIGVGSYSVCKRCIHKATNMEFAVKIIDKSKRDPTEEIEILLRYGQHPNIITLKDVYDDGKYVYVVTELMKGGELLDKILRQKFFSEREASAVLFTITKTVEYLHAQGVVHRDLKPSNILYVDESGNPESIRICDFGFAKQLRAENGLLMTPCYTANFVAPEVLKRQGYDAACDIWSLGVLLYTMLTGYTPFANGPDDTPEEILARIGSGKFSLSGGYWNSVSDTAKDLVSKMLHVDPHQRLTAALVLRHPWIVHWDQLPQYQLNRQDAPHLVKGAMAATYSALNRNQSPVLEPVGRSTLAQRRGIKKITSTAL
T2 sequence (P23458 whole entry): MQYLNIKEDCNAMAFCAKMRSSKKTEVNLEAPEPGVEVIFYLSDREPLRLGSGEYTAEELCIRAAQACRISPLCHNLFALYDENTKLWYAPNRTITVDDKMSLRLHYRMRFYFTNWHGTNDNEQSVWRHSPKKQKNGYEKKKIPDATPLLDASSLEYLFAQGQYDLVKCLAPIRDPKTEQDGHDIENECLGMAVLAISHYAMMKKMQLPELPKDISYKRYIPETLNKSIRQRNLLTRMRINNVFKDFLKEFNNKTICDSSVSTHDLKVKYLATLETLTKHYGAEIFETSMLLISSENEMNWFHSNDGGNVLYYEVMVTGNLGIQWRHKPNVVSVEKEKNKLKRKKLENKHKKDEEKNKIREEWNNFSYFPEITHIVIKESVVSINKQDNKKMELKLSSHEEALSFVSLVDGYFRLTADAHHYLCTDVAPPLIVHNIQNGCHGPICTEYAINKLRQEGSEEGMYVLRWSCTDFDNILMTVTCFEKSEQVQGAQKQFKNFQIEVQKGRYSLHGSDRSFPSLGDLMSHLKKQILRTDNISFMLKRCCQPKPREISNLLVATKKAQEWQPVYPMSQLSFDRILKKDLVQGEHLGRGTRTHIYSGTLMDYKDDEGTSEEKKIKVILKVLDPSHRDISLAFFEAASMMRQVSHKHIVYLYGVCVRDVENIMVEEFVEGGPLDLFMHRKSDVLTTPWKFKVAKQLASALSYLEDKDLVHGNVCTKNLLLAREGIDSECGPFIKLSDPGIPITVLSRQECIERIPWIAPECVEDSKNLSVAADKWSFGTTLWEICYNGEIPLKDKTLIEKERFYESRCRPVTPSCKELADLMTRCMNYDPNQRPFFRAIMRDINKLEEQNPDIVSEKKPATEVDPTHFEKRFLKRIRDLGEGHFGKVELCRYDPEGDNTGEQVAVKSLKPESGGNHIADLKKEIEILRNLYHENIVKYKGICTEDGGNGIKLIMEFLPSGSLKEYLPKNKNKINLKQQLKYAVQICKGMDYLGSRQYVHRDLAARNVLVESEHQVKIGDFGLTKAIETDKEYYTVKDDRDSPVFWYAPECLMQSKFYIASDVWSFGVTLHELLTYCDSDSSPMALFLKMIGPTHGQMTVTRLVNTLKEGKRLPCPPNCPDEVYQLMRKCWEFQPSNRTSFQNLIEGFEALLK
T7 sequence (P48729 whole entry): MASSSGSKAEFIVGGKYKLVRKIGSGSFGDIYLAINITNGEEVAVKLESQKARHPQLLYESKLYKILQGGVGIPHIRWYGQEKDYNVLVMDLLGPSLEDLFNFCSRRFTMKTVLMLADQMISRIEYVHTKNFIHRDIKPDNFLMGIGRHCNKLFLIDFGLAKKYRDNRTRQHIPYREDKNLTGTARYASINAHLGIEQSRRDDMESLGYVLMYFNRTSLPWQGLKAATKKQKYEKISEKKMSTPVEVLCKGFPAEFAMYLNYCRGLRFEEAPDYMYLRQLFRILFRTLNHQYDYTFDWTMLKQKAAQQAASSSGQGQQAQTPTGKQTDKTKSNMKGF

N#CCc1ccc(Nc2nc(NCCCN)cc(Nc3cc(C4CC4)[nH]n3)n2)cc1 [KAM]
IC50 (RPS6KA3; [1]): > 10000 nM | 0.001 uM KAM (RPS6KA3; relative to 0 uM KAM = 0): -0.01612 | 0.01 uM KAM (RPS6KA3; relative to 0 uM KAM = 0): -0.01929 | 0.1 uM KAM (RPS6KA3; relative to 0 uM KAM = 0): -0.05841 | 1 uM KAM (RPS6KA3; relative to 0 uM KAM = 0): -0.1372 | 10 uM KAM (RPS6KA3; relative to 0 uM KAM = 0): -0.2816 | median Log10 fold change (JAK1; 0.001 uM KAM): -0.0004094 | median Log10 fold change (JAK1; 0.01 uM KAM): 0.001552 | median Log10 fold change (JAK1; 0.1 uM KAM): -0.1118 | median Log10 fold change (JAK1; 1 uM KAM): -0.4812 | median Log10 fold change (JAK1; 10 uM KAM): -0.5497 | IC50 (JAK1; [2]): 518 nM | median Log10 fold change (PRKCB; 0.001 uM KAM): -0.003193 | median Log10 fold change (PRKCB; 0.01 uM KAM): -0.01706 | median Log10 fold change (PRKCB; 0.1 uM KAM): -0.1711 | median Log10 fold change (PRKCB; 1 uM KAM): -0.4944 | median Log10 fold change (PRKCB; 10 uM KAM): -0.6051 | IC50 (PRKCB; [2]): 354 nM | median Log10 fold change (CAMKK1; 0.001 uM KAM): -0.02592 | median Log10 fold change (CAMKK1; 0.01 uM KAM): -0.02355 | median Log10 fold change (CAMKK1; 0.1 uM KAM): -0.2718 | median Log10 fold change (CAMKK1; 1 uM KAM): -0.415 | median Log10 fold change (CAMKK1; 10 uM KAM): -0.4583 | IC50 (CAMKK1; [2]): 248 nM | median Log10 fold change (BCR; 0.001 uM KAM): -0.02555 | median Log10 fold change (BCR; 0.01 uM KAM): -0.005343 | median Log10 fold change (BCR; 0.1 uM KAM): -0.1851 | median Log10 fold change (BCR; 1 uM KAM): -0.427 | median Log10 fold change (BCR; 10 uM KAM): -0.5622 | IC50 (HUNK; [1]): > 10000 nM | 0.001 uM KAM (HUNK; relative to 0 uM KAM = 0): 0.08544 | 0.01 uM KAM (HUNK; relative to 0 uM KAM = 0): 0.04291 | 0.1 uM KAM (HUNK; relative to 0 uM KAM = 0): 0.1545 | 1 uM KAM (HUNK; relative to 0 uM KAM = 0): 0.0644 | 10 uM KAM (HUNK; relative to 0 uM KAM = 0): 0.1031 | IC50 (CSNK1A1; [1]): > 10000 nM | 0.001 uM KAM (CSNK1A1; relative to 0 uM KAM = 0): 0.05671 | 0.01 uM KAM (CSNK1A1; relative to 0 uM KAM = 0): -0.02341 | 0.1 uM KAM (CSNK1A1; relative to 0 uM KAM = 0): 0.02518 | 1 uM KAM (CSNK1A1; relative to 0 uM KAM = 0): 0.03521 | 10 uM KAM (CSNK1A1; relative to 0 uM KAM = 0): -0.008144 | median Log10 fold change (RPS6KA4; 0.001 uM KAM): 0.007656 | median Log10 fold change (RPS6KA4; 0.01 uM KAM): -0.02452 | median Log10 fold change (RPS6KA4; 0.1 uM KAM): -0.1561 | median Log10 fold change (RPS6KA4; 1 uM KAM): -0.4146 | median Log10 fold change (RPS6KA4; 10 uM KAM): -0.4828 | IC50 (RPS6KA4; [2]): 558 nM | IC50 (PKN1; [1]): > 10000 nM | 0.001 uM KAM (PKN1; relative to 0 uM KAM = 0): -0.02702 | 0.01 uM KAM (PKN1; relative to 0 uM KAM = 0): -0.01686 | 0.1 uM KAM (PKN1; relative to 0 uM KAM = 0): -0.08252 | 1 uM KAM (PKN1; relative to 0 uM KAM = 0): -0.1762 | 10 uM KAM (PKN1; relative to 0 uM KAM = 0): -0.2257 | IC50 (TRIM28; [1]): > 10000 nM | 0.001 uM KAM (TRIM28; relative to 0 uM KAM = 0): 0.05535 | 0.01 uM KAM (TRIM28; relative to 0 uM KAM = 0): 0.00293 | 0.1 uM KAM (TRIM28; relative to 0 uM KAM = 0): 0.1066 | 1 uM KAM (TRIM28; relative to 0 uM KAM = 0): 0.08268 | 10 uM KAM (TRIM28; relative to 0 uM KAM = 0): 0.08032 | IC50 (HIPK3; [1]): > 10000 nM | 0.001 uM KAM (HIPK3; relative to 0 uM KAM = 0): -0.01362 | 0.01 uM KAM (HIPK3; relative to 0 uM KAM = 0): -0.04323 | 0.1 uM KAM (HIPK3; relative to 0 uM KAM = 0): -0.04392 | 1 uM KAM (HIPK3; relative to 0 uM KAM = 0): -0.1209 | 10 uM KAM (HIPK3; relative to 0 uM KAM = 0): -0.16

— paper PMC5513037, “Examining the influence of specificity ligands and ATP-competitive ligands on the overall effectiveness of bivalent kinase inhibitors” (Proteome Science, 2017)
